In patent US8822449B2, “Substituted aminoindanes and analogs thereof, and the pharmaceutical use thereof” (Sanofi, priority 2008, dated 2014):

Each compound was assayed against T1, sodium-proton exchanger of subtype 3 (NHE3) (Homo sapiens, UniProt P48764) (assay: Recovery of intracellular pH (pHi) after acidification in LAP1 cells stably expressing NHE3 (BCECF fluorescence, FLIPR)). Conditions: LAP1 cells stably expressing NHE3; pH recovery after acidification; range 1 is % inhibition at 10 μM; read-out: Activity range (inhibitory effect on NHE3).
T1 construct: expressed in transfected cells
T1 sequence (P48764 26-834): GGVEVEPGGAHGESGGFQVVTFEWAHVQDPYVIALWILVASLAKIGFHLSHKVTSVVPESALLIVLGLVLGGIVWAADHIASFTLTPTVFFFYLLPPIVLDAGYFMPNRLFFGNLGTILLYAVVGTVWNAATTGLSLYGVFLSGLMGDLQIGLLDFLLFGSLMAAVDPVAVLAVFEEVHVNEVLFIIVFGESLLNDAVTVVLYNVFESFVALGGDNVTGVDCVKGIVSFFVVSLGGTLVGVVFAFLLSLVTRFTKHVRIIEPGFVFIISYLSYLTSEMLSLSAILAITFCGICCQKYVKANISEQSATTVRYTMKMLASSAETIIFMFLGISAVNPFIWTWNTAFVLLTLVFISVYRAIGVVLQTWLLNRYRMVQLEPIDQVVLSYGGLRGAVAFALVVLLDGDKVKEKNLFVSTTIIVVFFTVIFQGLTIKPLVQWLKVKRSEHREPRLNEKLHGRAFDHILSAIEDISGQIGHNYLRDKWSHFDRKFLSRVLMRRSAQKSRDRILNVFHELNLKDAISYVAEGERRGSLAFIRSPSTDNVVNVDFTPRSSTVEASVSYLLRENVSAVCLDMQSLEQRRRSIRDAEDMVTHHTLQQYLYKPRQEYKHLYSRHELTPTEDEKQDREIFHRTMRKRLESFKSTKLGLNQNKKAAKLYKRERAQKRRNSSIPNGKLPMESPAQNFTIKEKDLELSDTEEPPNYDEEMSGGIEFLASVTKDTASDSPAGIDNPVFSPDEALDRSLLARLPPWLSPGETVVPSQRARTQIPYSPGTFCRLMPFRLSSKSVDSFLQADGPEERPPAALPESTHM
Type: cell-based
Work on `CS(=O)(=O)c1ccc(O[C@H]2c3cc(Cl)cc(Cl)c3C[C@@H]2N2CCCN(CCO)CC2)cc1` (racemic) [Example 383, 2-{4-[rac-trans-(1,2)-4,6-dichloro-1-(4-methanesulfonylphenoxy)indan-2-yl]-[1,4]diazepan-1-yl}-ethanol] yielded an IC50 of less than 1000 nM.
Compound `N#Cc1ccc(O[C@@H]2c3ccccc3C[C@H]2N2C[C@H]3CNC[C@H]3C2)cc1F` (racemic) [Example 397, 2-fluoro-4-[rac-trans-(1,2)-2-(hexahydropyrrolo[3,4-c]pyrrol-2-yl)indan-1-yloxy]benzonitrile] has an IC50 of 1000 to 10000 nM.
In the case of `N#Cc1ccc(O[C@@H]2c3ccccc3C[C@H]2N2CCC(CN)CC2)cc1Cl` (racemic) [Example 546, 4-[rac-trans-(1,2)-2-(4-aminomethylpiperidin-1-yl)indan-1-yloxy]-2-chlorobenzonitrile], the IC50 is reported as 1000 to 10000 nM.
In the case of `N[C@@H]1CCCN([C@H]2CCc3ccccc3[C@@H]2Oc2ccc(-n3cncn3)cc2)C1` (racemic) [Example 61, (R)-1-[rac-trans-(1,2)-1-(4-[1,2,4]triazol-1-ylphenoxy)-1,2,3,4-tetrahydronaphthalen-2-yl]piperidin-3-ylamine], the IC50 is reported as 1000 to 10000 nM.
Compound `CC(=O)Nc1cccc(O[C@H]2c3cccc(C)c3C[C@@H]2N2CCCC2)c1` (racemic) [Example 653, N-[3-(rac-trans-(1,2)-4-methyl-2-pyrrolidin-1-ylindan-1-yloxy)phenyl]acetamide] has an IC50 of 1000 to 10000 nM.
`CS(=O)(=O)c1ccc(O[C@H]2c3cc(Cl)cc(Cl)c3C[C@@H]2N2CCCN(CCF)CC2)cc1` [Example 303, 1-[trans-(1S,2S)-4,6-dichloro-1-(4-methanesulfonylphenoxy)indan-2-yl]-4-(2-fluoroethyl)-[1,4]diazepane] was tested, and the IC50 was less than 1000 nM.
Work on `N#Cc1ccc(O[C@@H]2c3ccccc3C[C@H]2N2CCC[C@@H](N)C2)cc1F` (racemic) [Example 522, 4-[rac-trans-(1,2)-2-((R)-3-aminopiperidin-1-yl)indan-1-yloxy]-2-fluorobenzonitrile] yielded an IC50 of 1000 to 10000 nM.
`Cc1cc(O[C@H]2c3ccccc3C[C@@H]2N2CCCC2)ccc1S(C)(=O)=O` (racemic) [Example 271, 1-[rac-trans-(1,2)-1-(4-methanesulfonyl-3-methylphenoxy)indan-2-yl]pyrrolidine] showed an IC50 of 1000 to 10000 nM.
Work on `Cc1nnc(C)n1-c1ccc(O[C@H]2c3cc(Cl)cc(Cl)c3C[C@@H]2N2CCC[C@@H](O)C2)cc1` [Example 132, (R)-1-{trans-(1S,2S)-4,6-dichloro-1-[4-(3,5-dimethyl-[1,2,4]triazol-4-yl)phenoxy]indan-2-yl}piperidin-3-ol] yielded an IC50 of less than 1000 nM.
Work on `Cn1ccn(-c2ccc(F)c(O[C@H]3c4cc(Cl)cc(F)c4C[C@@H]3NC3CCCC3)c2)c1=O` [Example 756, 1-[3-(trans-(1S,2S)-6-Chloro-2-cyclopentylamino-4-fluoro-indan-1-yloxy)-4-fluoro-phenyl]-3-methyl-1,3-dihydro-imidazol-2-one] yielded an IC50 of 1000 to 10000 nM.
For `NS(=O)(=O)c1ccc(O[C@H]2c3ccccc3C[C@@H]2CN2CCCCC2)c(Cl)c1` (racemic) [Example 440, 3-chloro-4-(2-piperidin-1-ylmethylindan-1-yloxy)benzenesulfonamide], the inhibition at 10 µM was 20 to 50%.
`O=C1OCCN1c1ccc(Cl)c(O[C@H]2c3cc(Cl)cc(F)c3C[C@@H]2N2CC[C@@H](O)C2)c1` [Example 439, 3-{4-chloro-3-[(1S,2S)-6-chloro-4-fluoro-2-((R)-3-hydroxypyrrolidin-1-yl)indan-1-yloxy]phenyl}oxazolidin-2-one] was tested, and the IC50 was less than 1000 nM.
For `N[C@@H]1CCCN([C@H]2Cc3ccccc3[C@@H]2Oc2ccc(S(N)(=O)=O)cc2)C1` [Example 552, 4-[trans-(1S,2S)-2-((R)-3-aminopiperidin-1-yl)indan-1-yloxy]benzenesulfonamide], the IC50 was less than 1000 nM.
Work on `N#Cc1ccc(O[C@@H]2c3ccccc3C[C@H]2N2CCC[C@@H](N)C2)c(Cl)c1` (racemic) [Example 523, 4-[rac-trans-(1,2)-2-((R)-3-aminopiperidin-1-yl)indan-1-yloxy]-3-chlorobenzonitrile] yielded an IC50 of 1000 to 10000 nM.
`CC(=O)Nc1cccc(O[C@H]2c3ccccc3C[C@@H]2N2CCC[C@@H](NCCC(F)(F)F)C2)c1` [Example 632, N-(3-{trans-(1S,2S)-2-[(R)-3-(3,3,3-trifluoropropylamino)piperidin-1-yl]indan-1-yloxy}-phenyl)acetamide] showed an IC50 of less than 1000 nM.
Work on `CC(=O)Nc1cccc(O[C@H]2c3cc(F)cc(Cl)c3C[C@@H]2N2CCCC2)c1` (racemic) [Example 651, N-[3-(rac-trans-(1,2)-4-chloro-6-fluoro-2-pyrrolidin-1-ylindan-1-yloxy)phenyl]acetamide] yielded an IC50 of 1000 to 10000 nM.
`NC(=O)Nc1cccc(O[C@@H]2c3ccccc3C[C@H]2N2CCC[C@H](N)C2)c1` (racemic) [Example 232, {3-[rac-trans-(1,2)-2-((S)-3-aminopiperidin-1-yl)indan-1-yloxy]phenyl}urea] gave an IC50 of 1000 to 10000 nM.
`CSc1ccc(O[C@H]2c3ccccc3CC[C@@H]2N2CCC[C@@H](N)C2)cc1` (racemic) [Example 74, (R)-1-[rac-trans-(1,2)-1-(4-methylsulfanylphenoxy)-1,2,3,4-tetrahydronaphthalen-2-yl]piperidin-3-ylamine] was tested, and the inhibition at 10 µM was 20 to 50%.
With `Cc1nnc(C)n1-c1ccc(O[C@H]2c3cc(Cl)cc(Cl)c3C[C@@H]2N2CCCN(C)CC2)cc1` [Example 349, 1-{trans-(1S,2S)-4,6-dichloro-1-[4-(3,5-dimethyl-[1,2,4]triazol-4-yl)phenoxy]indan-2-yl}-4-methyl-[1,4]diazepane] the IC50 was less than 1000 nM.
With `N#Cc1ccc(O[C@H]2c3ccccc3CC[C@@H]2N2CCC[C@@H](N)C2)c(F)c1` (racemic) [Example 515, 4-[rac-trans-(1,2)-2-((R)-3-aminopiperidin-1-yl)-1,2,3,4-tetrahydronaphthalen-1-yloxy]-3-fluorobenzonitrile] the IC50 was 1000 to 10000 nM.
`N[C@H]1CCCN([C@H]2CCc3ccccc3[C@@H]2Oc2cccc(OC(F)F)c2)C1` (racemic) [Example 166, (S)-1-[rac-trans-(1,2)-1-(3-difluoromethoxyphenoxy)-1,2,3,4-tetrahydronaphthalen-2-yl]piperidin-3-ylamine] was tested, and the inhibition at 10 µM was 20 to 50%.
`N[C@H]1CCCN([C@@H]2Cc3ccccc3[C@H]2Oc2ccc(N3CCNCC3)cc2)C1` (racemic) [Example 185, (S)-1-[rac-trans-(1,2)-1-(4-piperazin-1-ylphenoxy)indan-2-yl]piperidin-3-ylamine] gave an IC50 of 1000 to 10000 nM.
With `CS(=O)(=O)c1ccc(O[C@H]2c3cc(Cl)cc(Cl)c3C[C@@H]2N2CC[C@@H](O)C2)cc1` [Example 103, (R)-1-[trans-(1S,2S)-4,6-dichloro-1-(4-methanesulfonylphenoxy)indan-2-yl]pyrrolidin-3-ol] the IC50 was less than 1000 nM.
For `N#Cc1ccc(O[C@H]2c3cc(Cl)cc(F)c3C[C@@H]2N2CC[C@@H](O)C2)c(F)c1` [Example 557, 4-[trans-(1S,2S)-6-chloro-4-fluoro-2-((R)-3-hydroxypyrrolidin-1-yl)indan-1-yloxy]-3-fluorobenzonitrile], the IC50 was 1000 to 10000 nM.
Work on `CN(C)CCN(C)[C@H]1Cc2c(Cl)cc(Cl)cc2[C@@H]1Oc1ccc(S(C)(=O)=O)cc1` [Example 671, N-[trans-(1S,2S)-4,6-dichloro-1-(4-methanesulfonylphenoxy)indan-2-yl]-N,N′,N′-trimethyl-ethane-1,2-diamine] yielded an IC50 of less than 1000 nM.
Work on `CS(=O)(=O)c1ccc(O[C@H]2c3cc(Cl)cc(Cl)c3C[C@@H]2N2CCCC(NCCO)C2)cc1` (stereo partly drawn) [Example 379, 2-{(R)-1-[trans-(1S,2S)-4,6-dichloro-1-(4-methanesulfonylphenoxy)indan-2-yl]piperidin-3-ylamino}-ethanol] yielded an IC50 of less than 1000 nM.
In the case of `O=C1CCCN1c1ccc(O[C@H]2c3cc(Cl)cc(Cl)c3C[C@@H]2N2CCC2)cc1` [Example 259, 1-[4-((1S,2S)-2-azetidin-1-yl-4,6-dichloroindan-1-yloxy)phenyl]pyrrolidin-2-one], the inhibition at 10 µM is reported as 20 to 50%.
`Cc1nc2cc(O[C@H]3c4cc(Cl)cc(Cl)c4C[C@@H]3N3CCNCC3)ccc2s1` (racemic) [Example 572, 5-(rac-trans-(1,2)-4,6-dichloro-2-piperazin-1-ylindan-1-yloxy)-2-methylbenzothiazole] was tested, and the IC50 was 1000 to 10000 nM.
`Cn1ccn(-c2cc(O[C@H]3c4cc(Cl)cc(Cl)c4C[C@@H]3N3CC[C@@H](O)C3)ccc2F)c1=O` [Example 745, 1-{5-[trans-(1S,2S)-4,6-Dichloro-2-((R)-3-hydroxy-pyrrolidin-1-yl)-indan-1-yloxy]-2-fluoro-phenyl}-3-methyl-1,3-dihydro-imidazol-2-one] gave an inhibition at 10 µM of 20 to 50%.
Compound `CC(=O)Nc1cccc(O[C@H]2c3c(Cl)cccc3C[C@@H]2N2CCCC2)c1` (racemic) [Example 662, N-[3-(rac-trans-(1,2)-7-chloro-2-pyrrolidin-1-ylindan-1-yloxy)phenyl]acetamide] has an IC50 of 1000 to 10000 nM.
